Data on 6 compounds can be found in publication PMC12062876, “Efficient constitution of a library of rotenoid analogs active against Trypanosoma cruzi from a digitalized plant extract collection” (RSC Advances, 2025).

Like-named read-outs stand apart in the source and are kept apart here.

For data set [1], the system named is T. cruzi amastigotes. In words: Activity against intracellular T. cruzi amastigotes. The format is cell-based, Trypanosoma cruzi. Particulars: for IC50: read-out: IC50 T. cruzi amastigotes; for Selectivity index: SI = IC50 cytotoxicity/IC50 against T. cruzi. An excerpt: The bioactivity of isolated compounds against intracellular T. cruzi amastigotes grown in rat L6 […] is presented in Table 1. […] Rotenone and deguelin are known to be strong mitochondrial complex I (also known as NADH:ubiquinone oxidoreductase) inhibitors,[43–45] while different activities between closely related rotenoids (rotenone, 5′-α-epirotenone, and 5′-β-epirotenone) has already been shown. […] The variation in activity observed on our rapidly generated series of structural analogs points in the same direction. As shown in Fig. 3 and Table 1, the cyclic and bent form of the rotenoid at the B/C ring junction is essential for activity, since compounds 40 and 41 were not active.
The pure compounds activity was assessed against T. cruzi amastigotes as described in ref. [27].

The test system of data set [2] is L6 cells (rat skeletal myoblast). In words: Cytotoxicity assay: L-6 cells. The format is cell-based. Particulars: means of two independent assays. Here is the method: (§1) The pure compounds cytotoxicity was assessed against L6 cells as described in ref. [27].
The nature of data set [3]: Cytotoxicity assay: L-6 cells. As to conditions: rat skeletal myoblast (L6 cells); means of two independent assays. The format is cell-based. Here is the method:
as §1

Data set [4] deals with T. cruzi amastigotes. As to conditions: commercial standards; cited from earlier work.
A further data set relates to Haemonchus contortus. As to conditions: cited from earlier work.
Data set [5] deals with L6 cells (rat skeletal myoblast). As to conditions: commercial standards; cited from earlier work.
[6] abbreviates: Trypanosoma cruzi, intracellular amastigotes grown in rat L6 cells, means of two independent assays.

What is called IC50 is the point on the concentration scale where inhibition reaches its midpoint. As for medicarpin [Compound 15], the half-inhibitory concentration (IC50) in the data set on T. cruzi amastigotes [1] (intracellular amastigotes grown in rat L6 cells, means of two independent assays) is 202 µM; in data set [2] it was 226 µM.

For the compound `COc1cc2c(cc1OC)[C@@H]1C(=O)c3ccc4c(c3O[C@@H]1CO2)C=CC(C)(C)O4` [Compound 39, deguelin], in the data set with T. cruzi amastigotes [1], the Selectivity index amounted to 1148.5. Besides, the 50% inhibitory concentration (IC50) in the data set with T. cruzi amastigotes [1] (setting [6]) is 0.02 µM; in data set [3], 19.4 µM. Further, the “IC50 against the amastigote form of the parasite” value with T. cruzi amastigotes [4] is given as “nanomolar”. In addition, in the data set with Haemonchus contortus, the nematocidal activity entry is listed as “potent nematocidal activity”. For the same compound, in data set [5], the “toxicity to the host cell” value is given as “without toxicity”.

`C=C(C)[C@H]1Cc2c(ccc3c2O[C@@H]2COc4cc(OC)c(OC)cc4[C@@H]2C3=O)O1` [Compound 37, rotenone] showed a Selectivity index in the data set on T. cruzi amastigotes [1] of 51.7. The IC50 in the data set with T. cruzi amastigotes [1] (Trypanosoma cruzi, L6, in Rattus norvegicus) turned out to be 0.01 µM; in data set [3], 0.48 µM. Moreover, the “IC50 against the amastigote form of the parasite” value in the data set with T. cruzi amastigotes [4] was “nanomolar”. Moreover, the nematocidal activity result in the data set with Haemonchus contortus is “potent nematocidal activity”. For the same compound, in data set [5], the “toxicity to the host cell” value was “without toxicity”.

As for `CC(=O)OC(C1COc2ccc3c(c21)OC(c1ccc(O)cc1)CC3=O)C(C)(C)O` (centres unmarked) [Compound 12, 2-hydroxy-1-(2-(4-hydroxyphenyl)-4-oxo-3,4,8,9-tetrahydro-2H-furo[2,3-h]chromen-9-yl)-2-methylpropyl acetate], the Selectivity index in the data set on T. cruzi amastigotes [1] stood at 1.7. The results for the IC50 (in the data set with T. cruzi amastigotes [1] (setting [6]); in data set [3]) were 58.8 µM and 99.4 µM, respectively.

In the data set with T. cruzi amastigotes [1], `COc1cc2c(cc1C1COc3cc(O)ccc3C1)OCO2` (centres unmarked) [Compound 5, astraciceran] displayed a Selectivity index of 0.8. Also, the concentration for half-maximal inhibition (IC50) with T. cruzi amastigotes [1] (setting [6]) was 94.1 µM; in data set [3], 75.4 µM.

In turn, `COc1cc2c(cc1OC)[C@@H]1C(=O)c3cc4ccoc4cc3O[C@@H]1CO2` (relative stereo) [Compound 32, erosone] returned a Selectivity index with T. cruzi amastigotes [1] of 2.9. For the same compound, the IC50 with T. cruzi amastigotes [1] (setting [6]) came to 39.3 µM; in data set [3], 115 µM.
